What was measured:
[1] = reversed-phase HPLC; has been reported; cited from earlier work
[2] = physchem; settings: reversed-phase hplc
[3] = biological target: T1, cGK I (Bos taurus, UniProt P00516); assay: Inhibition of isolated cGK I; type: biochemical, bovine
T1 construct: Isolation of cGK I from bovine lung; from tissue; host or cells: bovine lung
T1 sequence (P00516 1-671): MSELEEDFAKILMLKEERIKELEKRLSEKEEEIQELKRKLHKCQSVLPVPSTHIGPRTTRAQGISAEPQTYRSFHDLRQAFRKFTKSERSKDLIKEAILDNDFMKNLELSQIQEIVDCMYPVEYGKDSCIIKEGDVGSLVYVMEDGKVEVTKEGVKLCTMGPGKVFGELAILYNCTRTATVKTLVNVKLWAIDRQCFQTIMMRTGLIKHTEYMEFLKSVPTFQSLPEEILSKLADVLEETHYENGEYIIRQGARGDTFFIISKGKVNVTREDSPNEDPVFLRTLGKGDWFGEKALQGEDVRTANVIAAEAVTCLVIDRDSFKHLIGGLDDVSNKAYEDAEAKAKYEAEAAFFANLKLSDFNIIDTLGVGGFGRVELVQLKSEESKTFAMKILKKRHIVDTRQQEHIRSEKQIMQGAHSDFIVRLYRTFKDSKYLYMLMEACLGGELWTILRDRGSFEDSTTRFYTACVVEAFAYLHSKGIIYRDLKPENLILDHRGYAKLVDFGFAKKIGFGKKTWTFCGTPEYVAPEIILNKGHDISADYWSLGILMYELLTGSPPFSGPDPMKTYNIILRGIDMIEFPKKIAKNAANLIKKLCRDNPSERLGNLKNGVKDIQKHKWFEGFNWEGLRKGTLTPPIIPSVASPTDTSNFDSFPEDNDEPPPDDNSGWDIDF
Procedure: (§1) Isolation of cGK I from bovine lung and of cAK II from bovine heart is performed as has been already published (Walter et al., J. Biol. Chem., 255, 3757-3762 (1980)). Protein kinase activity is determined according to the method of Roskoski (Methods Enzymol., 99, 3-6 (1983)). In vitro data on membranes of human thrombocytes are obtained as has already been described by Halbrugge et al. (Eur. J. Biochem., 185, 41-50, (1989)).

[4] = test system: cAMP-dependent phosphorylation of a 22- and a 240 kDa-band; assay: cAMP-dependent phosphorylation of 22 and 240 kDa bands in membranes of human thrombocytes; type: biochemical
Procedure: as §1
(§2) Compounds with extraordinary good membrane permeability are tested in vivo with intact human thrombocytes according to Halbrugge et al. CJ. Biol. Chem., 265, 3088-3093 (1990)).

[5] = test system: cGMP-inhibited phosphodieserases (cGI-PDE); assay: Inhibition of cGMP-inhibited phosphodiesterases (cGI-PDE); type: biochemical
[6] = biological target: T2, cAK II (Bos taurus, UniProt P00515); assay: Activation of cAK II; type: biochemical, bovine; settings: at high concentrations
T2 construct: of cAK II from bovine heart; from tissue; host or cells: bovine heart
T2 sequence (P00515 2-401 limits assumed): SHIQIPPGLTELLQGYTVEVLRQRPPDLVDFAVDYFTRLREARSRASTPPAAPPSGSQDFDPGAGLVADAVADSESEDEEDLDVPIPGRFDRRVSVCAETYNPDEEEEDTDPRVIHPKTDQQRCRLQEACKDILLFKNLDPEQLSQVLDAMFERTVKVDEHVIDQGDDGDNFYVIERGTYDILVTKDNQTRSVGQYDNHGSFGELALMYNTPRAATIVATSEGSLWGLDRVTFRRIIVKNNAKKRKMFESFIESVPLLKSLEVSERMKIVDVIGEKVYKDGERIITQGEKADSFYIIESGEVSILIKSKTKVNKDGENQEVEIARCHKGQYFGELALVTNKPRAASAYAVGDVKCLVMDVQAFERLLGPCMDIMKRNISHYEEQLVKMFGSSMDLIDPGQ
Procedure: as §1

[7] = test system: phosphorylation of a 46/50 kDa-band in membranes of human thrombocytes; assay: cGMP-modulated phosphorylation of a 46/50 kDa band in membranes of human thrombocytes; type: biochemical
Procedure: as §1, §2

[8] = Cell membrane permeability; type: in vitro ADME
[9] = test system: cGMP-dependent phosphorylation in intact human thrombocytes; assay: cGMP-dependent phosphorylation in intact human thrombocytes (in vivo); type: cell-based
Procedure: as §2

[10] = biological target: T3, cGMP-dependent protein kinases (Bos taurus, UniProt P00516); assay: Inhibition/activation of cGMP-dependent protein kinase (cGK); type: biochemical, bovine
T3 construct: Isolation of cGK I from bovine lung; from tissue; host or cells: bovine lung
T3 sequence (P00516 2-671 limits assumed): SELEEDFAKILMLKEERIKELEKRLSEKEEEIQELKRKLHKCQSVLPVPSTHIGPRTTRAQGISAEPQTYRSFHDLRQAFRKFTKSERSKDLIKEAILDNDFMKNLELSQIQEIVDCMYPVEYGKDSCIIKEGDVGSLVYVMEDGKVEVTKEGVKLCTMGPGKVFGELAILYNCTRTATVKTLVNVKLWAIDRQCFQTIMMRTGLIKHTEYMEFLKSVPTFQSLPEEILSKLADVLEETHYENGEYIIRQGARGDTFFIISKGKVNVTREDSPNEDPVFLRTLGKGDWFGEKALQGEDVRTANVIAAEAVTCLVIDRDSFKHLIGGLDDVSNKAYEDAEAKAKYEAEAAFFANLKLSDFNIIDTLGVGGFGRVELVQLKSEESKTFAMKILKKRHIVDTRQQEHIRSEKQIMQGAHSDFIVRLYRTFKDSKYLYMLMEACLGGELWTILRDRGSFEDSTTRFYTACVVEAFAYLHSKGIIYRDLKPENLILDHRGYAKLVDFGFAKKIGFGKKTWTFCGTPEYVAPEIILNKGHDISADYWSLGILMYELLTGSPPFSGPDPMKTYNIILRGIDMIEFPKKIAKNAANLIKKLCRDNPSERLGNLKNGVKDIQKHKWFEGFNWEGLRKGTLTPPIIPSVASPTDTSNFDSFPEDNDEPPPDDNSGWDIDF
Procedure: as §1

[11] = test system: perfused aorta muscle; assay: SIN 1-stimulated relaxation in perfused aorta muscle
[12] = test system: cGMP-dependent phosphorylation of three proteins of the masses 46, 50 and 130 kDa; assay: cGMP-dependent phosphorylation of three proteins of 46, 50 and 130 kDa
[13] = test system: cGMP signal transduction pathway; assay: Selective block of the cGMP signal transduction pathway; settings: selectivity over cAMP-mediated effects
[14] = test system: cAMP-dependent protein kinases type I (cAK I); settings: Botelho et al. 1988; cited from earlier work
[15] = test system: cAK; settings: cited from earlier work
[16] = test system: cAMP-dependent protein kinases type II (cAK II); settings: Botelho et al. 1988; cited from earlier work
[17] = biological target: T3, cGMP-dependent protein kinases; settings: background literature (Butt et al. 1990); cited from earlier work

## Nc1nc2c(ncn2[C@@H]2O[C@@H]3COP(=O)(O)O[C@H]3[C@H]2O)c(=O)[nH]1 [cGMP, guanosine-3',5'-monophosphate, reference compound]
[1]
  log KW: 0.85
[2]
  chromatographic logP: 0.77

## O=c1c2ncn([C@@H]3O[C@@H]4CO[P@@](O)(=S)O[C@H]4[C@H]3O)c2[nH]c2nc(-c3ccccc3)cn12 [RP -PET-cGMPS, Cyclic β-phenyl-1,N^2-ethenoguanosine-3',5'-monophosphorothioate, RP -diastereomer]
[2]
  chromatographic logP: 2.81

## O=c1c2ncn([C@@H]3O[C@@H]4CO[P@](O)(=S)O[C@H]4[C@H]3O)c2[nH]c2nc(-c3ccccc3)cn12 [SP -PET-cGMPS, Cyclic β-phenyl-1,N^2-ethenoguanosine-3',5'-monophosphorothioate, SP -diastereomer]
[2]
  chromatographic logP: 2.83

## Nc1nc2c(nc(Sc3ccc(Cl)cc3)n2[C@@H]2O[C@@H]3CO[P@@](O)(=S)O[C@H]3[C@H]2O)c(=O)[nH]1 [RP -8-pCPT-cGMPS, Cyclic 8-(4-chlorophenylthio)-guanosine-3',5'-monophosphorothioate, RP -diastereomer]
[3]; isolated cGK I
  type of inhibition of isolated cGK I: competitive inhibitor
[3]; read-out: inhibition constant Ki
  Ki: 700 nM
[4]
  cAMP-dependent phosphorylation of a 22- and a 240 kDa-band: not disturbed
[5]
  inhibition of cGI-PDE: poor inhibitor
[6]
  agonism for cAK II: weakly partial agonist
[7]; membranes of human thrombocytes
  phosphorylation of a 46/50 kDa-band: inhibits the phosphorylation
[2]
  chromatographic logP: 2.82
[8]
  cell membrane permeability: excellent cell membrane permeability
[9]
  cGMP-dependent (cGMP-mediated) phosphorylation: inhibits the cGMP-dependent phosphorylation even in intact human thrombocytes

## O=c1c2nc(Br)n([C@@H]3O[C@@H]4CO[P@@](O)(=S)O[C@H]4[C@H]3O)c2nc2[nH]c(-c3ccccc3)cn12 [RP -8-Br-PET-cGMPS, Cyclic β-phenyl-1,N^2-etheno-8-bromoguanosine-3',5'-monophosphorothioate, RP -diastereomer]
[10]
  type of inhibition of cGMP-dependent protein kinases: competitive inhibitor
[10]; cGMP-dependent protein kinases, competitive inhibitor, read-out: inhibition constant Ki
  Ki: 30 nM
[11]
  SIN 1-stimulated relaxation: inhibited
[12]
  cGMP-dependent phosphorylation of three proteins: inhibited
[7]; thrombocyte membranes, relative to RP -8-pCPT-cGMPS
  effectivity at thrombocyte membranes, factor over RP -8-pCPT-cGMPS: 5-10
[2]
  chromatographic logP: 3.22
[13]
  block of cGMP signal transduction pathway: blocks selectively the cGMP signal transduction pathway without affecting cAMP-mediated effects

## Nc1nc2c(nc(Sc3ccc(Cl)cc3)n2[C@@H]2O[C@@H]3CO[P@](O)(=S)O[C@H]3[C@H]2O)c(=O)[nH]1 [SP -8-pCPT-cGMPS, Cyclic 8-(4-chlorophenylthio)-guanosine-3',5'-monophosphorothioate, SP -diastereomer]
[10]; isolated cGK
  activation of isolated cGK: activator
[2]
  chromatographic logP: 2.84
[9]
  cGMP-dependent (cGMP-mediated) phosphorylation: activator

## Nc1ncnc2c1ncn2[C@@H]1O[C@@H]2CO[P@@](O)(=S)O[C@H]2[C@H]1O [RP -cAMPS, adenosine-3',5'-monophosphorothioate]
[14]
  inhibition of cAK I: competitive inhibitor
[15]; Botelho et al. 1988
  cAMP antagonism: antagonist of cAMP
[16]
  inhibition of cAK II: competitive inhibitor

## Nc1nc2c(ncn2[C@@H]2O[C@@H]3CO[P@@](O)(=S)O[C@H]3[C@H]2O)c(=O)[nH]1 [RP -cGMPS, RP -Guanosine-3',5'-monophosphorothioate]
[17]
  inhibitory properties / specificity for cGK: lacks the required specificity for cGMP-dependent protein kinase (cGK)
[15]; background literature
  inhibition/agonism of cAK: inhibits cAK as well

From patent US5625056A, “Derivatives of cyclic guanosine-3',5'-monophosphorothioate” (BIOLOG Life Science Institute, priority 1992, dated 1997)
